Drawing on patent publication US20240092774A1, “HETEROAROMATIC COMPOUNDS AND USES THEREOF” (HUTCHISON MEDIPHARMA LIMITED, priority 2020, published 2024), this text covers IC50 for 33 compounds.

Assay [1] deals with Recombinant human CSF1R kinase (Homo sapiens (Human), UniProt P07333). Briefly: Measurement of CSF1R kinase activity at molecular level (Z-LYTE). The class given is biochemical. Conditions: Z-LYTE Tyr 1 peptide. The protocol: Invitrogen, PV3227; • Development reagent B: Invitrogen, PV3295; • Development buffer: Invitrogen. P3127; • Stopping solution: Invitrogen, P3094; • Recombinant human CSF1R kinase: Invitrogen, P[…]; • 384 well plate, black: Corning. 3575; • Envision: Perkin Elmer. 2. […] The test compound was diluted in gradient to 4-fold the reaction concentration and the concentration of DMSO was kept at 8%. […] The mixture was mixed gently with a pipette. • 4) A phosphorylated peptide substrate solution (PP solution): 0.4 μL of Z-LYTETM Tyr1 phosphorylated peptide substrate was added to 99.6 μl of 1.33× kinase buffer. • 5) ATP solution: 10 mM of ATP was diluted to 760 μM with 1.33× kinase buffer to prepare ATP solution. • 6) Development solution: Development reagent B was diluted with Development buffer at a ratio of 1:200. 3. […] 2.5 μL of 4× test compound was added to each reaction well of the 384 plate, and the corresponding volume of 8% DMSO was added to the control well. The plate was placed on ice. […] After adding the reaction components, the 384-well plate was sealed and incubated at 25-30° C. for 1 h in dark. 2) Development Reaction 5 μL of Development solution was added to each well, sealed and incubated at 25-30° C. for another 1 h in dark. 3) Reaction Stopping and Plate Reading 5 μL of stopping solution was added to each well. The Coumarin value (excitation at 400 nm, emission at 445 nm) and Fluorescein value (excitation at 400 nm, emission at 520 nm) were measured, respectively. 4. […] Coumarin emission read-out (445 nm)/Fluorescein emission read-out (520 nm); • C3 445 nm: 100% phosphorylated Coumarin emission read-out; • C3 520 nm: 100% phosphorylated Fluorescein emission read-out; • C1 445 nm: 0% phosphorylated Coumarin emission read-out; • C1 520 nm: 0% phosphorylated Fluorescein emission read-out. […] 5. IC50 values: calculated by using software XL-FitTM (version 5.3) supplied by ID Business Solutions (Guildford, UK), which is an additional software to Microsoft Excel.

The target of assay [2] is CSF1R phosphorylation in THP-1 cells (Homo sapiens (Human), UniProt P07333). Briefly: Detection of CSF1R phosphorylation activity at cell level (p-CSF1R ELISA, M-CSF stimulated THP-1 cells). The class given is cell-based. On the procedure:
THP-1 (ATCC), human acute monocytic leukemia cells.
3. Treatment of cells and preparation of lysis buffer
5 μL. of the diluted compound was added to the 50 μL cell culture system, the culture was cultured in a 5% CO2, 37° C. cell incubator for 60 min, 300 ng/mL of M-CSF was added to the cells, and the mixture was stimulated in the 37° C. cell incubator for 1 min, added 50 μL of cell lysis buffer, and stored in a refrigerator at −80° C.
100 μL/well of the p-CSF1R capture antibody diluted to 0.8 μg/mL with PBS was added to the ELISA plate, and the plate was coated on a shaker at room temperature overnight. The culture was washed with PBST, and then added blocking solution and incubated at room temperature for 2 h. The culture was washed with PBST, added 90 μL of cell lysis buffer, and incubated on a shaker at 25° C. for 2 h. The plate was washed with PBST three times, added 100 μL of anti-p-tyrosine-HRP detection antibody diluted with 0.1% PBS-BSA diluent, and incubated on a shaker at 25° C. for 2 h. The plate was washed with PBST washing liquid, added 100 μL of chromogenic substrate and incubated at room temperature for 10-20 min. The reaction was stopped by adding 50 μL of 2N H2SO4. The optical density signal (450/570 nm) of each well was detected in Labsystems Multiskan K3 or Envision.
wherein • Drug-treated well read-out: indicating the optical density signal of a cell well with the test compound treatment. • Background read-out: indicating the optical density signal of a well without cells but with cell lysis buffer. • Cell well read-out: indicating the optical density signal of a cell well not treated with the compound.
6. Calculation of IC50: obtained by using XL-Fit 5.3 software, […]

Setting [3] is: THP-1 cells, M-CSF stimulation, p-CSF1R ELISA, read-out: IC50.

The structures appear in SMILES notation. Read-outs that look alike come from different tables or passages of the source.

Chain of Recombinant human CSF1R kinase (P07333 20-972): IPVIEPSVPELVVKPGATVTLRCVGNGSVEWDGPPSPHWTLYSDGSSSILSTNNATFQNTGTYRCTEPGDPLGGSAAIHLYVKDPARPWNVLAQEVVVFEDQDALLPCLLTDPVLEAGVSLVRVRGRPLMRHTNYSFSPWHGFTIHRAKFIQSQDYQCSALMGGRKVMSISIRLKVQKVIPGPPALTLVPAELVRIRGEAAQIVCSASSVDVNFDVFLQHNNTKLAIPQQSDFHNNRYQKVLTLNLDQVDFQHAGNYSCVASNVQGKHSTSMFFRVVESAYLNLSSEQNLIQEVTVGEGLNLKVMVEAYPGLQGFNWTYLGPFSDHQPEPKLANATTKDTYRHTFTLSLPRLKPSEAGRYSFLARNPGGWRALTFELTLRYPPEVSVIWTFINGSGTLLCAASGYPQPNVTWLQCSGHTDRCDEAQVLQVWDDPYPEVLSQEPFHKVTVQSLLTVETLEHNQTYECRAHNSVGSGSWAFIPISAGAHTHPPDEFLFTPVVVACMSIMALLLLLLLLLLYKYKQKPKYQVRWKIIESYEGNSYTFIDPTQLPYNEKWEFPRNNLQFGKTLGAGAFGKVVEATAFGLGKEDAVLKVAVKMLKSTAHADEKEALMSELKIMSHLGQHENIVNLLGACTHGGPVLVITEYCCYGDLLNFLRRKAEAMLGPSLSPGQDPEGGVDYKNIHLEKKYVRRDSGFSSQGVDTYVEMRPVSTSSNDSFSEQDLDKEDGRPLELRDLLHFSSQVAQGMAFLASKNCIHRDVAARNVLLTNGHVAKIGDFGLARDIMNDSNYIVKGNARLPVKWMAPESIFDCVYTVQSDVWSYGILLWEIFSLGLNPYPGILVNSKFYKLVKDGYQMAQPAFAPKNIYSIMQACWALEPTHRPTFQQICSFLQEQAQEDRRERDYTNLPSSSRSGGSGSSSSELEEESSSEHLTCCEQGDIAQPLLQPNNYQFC
Chain of CSF1R phosphorylation in THP-1 cells (P07333 20-972): as above

For `Cn1cc(-c2cc(Oc3cnc4c(c3)OCC(c3ccc(C5CC5)cc3)O4)ccn2)cn1` (racemic) [Compound 48, (R/S)-3-(4-cyclopropylphenyl)-7-((2-(1-methyl-1H-pyrazol-4-yl)pyridin-4-yl)oxy)-2,3-dihydro-[1,4]dioxino[2,3-b]pyridine], the IC50 was 5 nM in assay [1] and 0.005 µM in assay [2] (setting [3]).

Turning to `Cn1cc(-c2cc(Oc3cnc4c(c3)OCC(c3ccc(C5CC5)cc3)O4)ccn2)cn1` (racemic) [Compound 51, (R/S)-3-(4-cyclopropylphenyl)-7-((2-(1-methyl-1H-pyrazol-4-yl)pyridin-4-yl)oxy)-2,3-dihydro-[1,4]dioxino[2,3-b]pyridine], the concentration for half-maximal inhibition (IC50) in assay [1] came out at 8 nM; in assay [2] (setting [3]), 0.006 µM.

On to `Cn1cc(-c2cc(Oc3cnc4c(c3)OCC(c3ccc(C5CC5)nc3)O4)ccn2)cn1` (racemic) [Compound 53, (R/S)-3-(6-cyclopropylpyridin-3-yl)-7-((2-(1-methyl-1H-pyrazol-4-yl)pyridin-4-yl)oxy)-2,3-dihydro-[1,4]dioxino[2,3-b]pyridine], for which the figures for the IC50 in assay [1] and in assay [2] (setting [3]) were 3 nM and 0.019 µM, respectively.

Regarding `Cn1cc(-c2cc(Oc3cnc4c(c3)OCC(c3ccc(C5CC5)nc3)O4)ccn2)cn1` (racemic) [Compound 54, (R/S)-3-(6-cyclopropylpyridin-3-yl)-7-((2-(1-methyl-1H-pyrazol-4-yl)pyridin-4-yl)oxy)-2,3-dihydro-[1,4]dioxino[2,3-b]pyridine], the figures for the IC50 in assay [1] and in assay [2] (setting [3]) were 2 nM and 0.022 µM, respectively.

For the compound `O=c1ccnc2ccc(Oc3cnc4c(c3)OCC(c3ccc(C5CC5)cc3)O4)cn12` (racemic) [Compound 55, (R/S)-7-((3-(4-cyclopropylphenyl)-2,3-dihydro-[1,4]dioxino[2,3-b]pyridin-7-yl)oxy)-4H-pyrido[1,2-a]pyrimidin-4-one], the figures for the IC50 in assay [1] and in assay [2] (setting [3]) were 8 nM and 0.007 µM, respectively.

For `O=c1ccnc2ccc(Oc3cnc4c(c3)OCC(c3ccc(C5CC5)cc3)O4)cn12` (racemic) [Compound 56, (R/S)-7-((3-(4-cyclopropylphenyl)-2,3-dihydro-[1,4]dioxino[2,3-b]pyridin-7-yl)oxy)-4H-pyrido[1,2-a]pyrimidin-4-one], the IC50 in assay [1] is 12 nM; in assay [2] (setting [3]) it was 0.014 µM.

Consider `Cn1cc(-c2cc(Oc3cnc4c(c3)O[C@H](c3ccc(C5CC5)cc3)CO4)ccn2)cn1` (single isomer, unassigned) [Compound 49, (R/S)-2-(4-cyclopropylphenyl)-7-((2-(1-methyl-1H-pyrazol-4-yl)pyridin-4-yl)oxy)-2,3-dihydro-[1,4]dioxino[2,3-b]pyridine], for which the IC50 was found to be 23 nM in assay [1] and 0.06 µM in assay [2] (setting [3]).

Take `Cn1cc(-c2cc(Oc3cnc4c(c3)O[C@H](c3ccc(C5CC5)cc3)CO4)ccn2)cn1` (single isomer, unassigned) [Compound 50, (R/S)-2-(4-cyclopropylphenyl)-7-((2-(1-methyl-1H-pyrazol-4-yl)pyridin-4-yl)oxy)-2,3-dihydro-[1,4]dioxino[2,3-b]pyridine]: the values for the IC50 in assay [1] and in assay [2] (setting [3]) were 73 nM and 0.197 µM, respectively.

Consider `COc1ccc(COc2ccc(Oc3ccc4ncc(C)c(=O)n4c3)cn2)cc1` [Compound 1, 7-((6-((4-methoxybenzyl)oxy)pyridin-3-yl)oxy)-3-methyl-4H-pyrido[1,2-a]pyrimidin-4-one], for which the figures for the IC50 in assay [1] and in assay [2] (IC50 (μM)) were 10 nM and 0.052 µM, respectively.

For `Cc1cnc2ccc(Oc3ccc(OCc4ccc(F)cc4)nc3)cn2c1=O` [Compound 3], the IC50 in assay [1] came to 81 nM.

As for `Cc1cnc2ccc(Oc3ccc(OCc4ccc(F)c(Cl)c4)nc3)cn2c1=O` [Compound 4], the IC50 in assay [1] worked out at 129 nM.

In the case of `COc1ccc(COc2ncc(Oc3ccc4ncc(C)c(=O)n4c3)cc2OC)cc1` [Compound 6], the figures for the IC50 in assay [1] and in assay [2] (setting [3]) were 7 nM and 0.004 µM, respectively.

For `C#Cc1ccc(COc2ncc(Oc3ccc4ncc(C)c(=O)n4c3)cc2OC)cc1` [Compound 7], in assay [1], the IC50 came out at 15 nM.

As for `COc1cc(Oc2ccc3ncc(C)c(=O)n3c2)cnc1OCc1ccc(C(C)C)cc1` [Compound 8], the IC50 in assay [1] amounted to 67 nM; in assay [2] (setting [3]) it was 0.029 µM.

As to `COc1cc(Oc2ccc3ncc(C)c(=O)n3c2)cnc1OCc1ccc(C2CC2)c(F)c1` [Compound 9], the half-inhibitory concentration (IC50) is 63 nM in assay [1] and 0.006 µM in assay [2] (setting [3]).

As for `COc1cc(Oc2ccc3ncc(C)c(=O)n3c2)cnc1OCc1cccc(C(C)(C)C#N)c1` [Compound 10], the IC50 in assay [1] turned out to be 44 nM; in assay [2] (setting [3]) it was 0.08 µM.

In the case of `COc1cc(Oc2ccc3ncc(C)c(=O)n3c2)cnc1OCc1ccc(C2CC2)cc1F` [Compound 11], the IC50 in assay [1] was 61 nM; in assay [2] (setting [3]) it was 0.164 µM.

Consider `COc1cc(Oc2ccnc(-c3cnn(C)c3)c2)cnc1OCc1ccc(C2CC2)cc1` [Compound 12], for which the IC50 in assay [1] amounted to 13 nM; in assay [2] (setting [3]) it was 0.005 µM.

In the case of `COc1cc(Oc2ccc3ncc(C)c(=O)n3c2)cnc1OCc1ccc(C2CC2F)cc1` (stereo not drawn) [Compound 13], the 50% inhibitory concentration (IC50) in assay [1] was 8 nM; in assay [2] (setting [3]) it was 0.017 µM.

Consider `Cc1cnc2ccc(Oc3cnc(OCc4ccc(C5CC5)cc4)c(OCF)c3)cn2c1=O` [Compound 14], for which the results for the IC50 in assay [1] and in assay [2] (setting [3]) were 28 nM and 0.048 µM, respectively.

As to `COc1cc(Oc2ccc3ncc(C)c(=O)n3c2)cnc1OCc1ccc(C2CC2(F)F)cc1` (stereo not drawn) [Compound 15], the values for the IC50 in assay [1] and in assay [2] (setting [3]) were 10 nM and 0.015 µM, respectively.

On to `COc1cc(Oc2ccc3ncn(C)c(=O)c3c2)cnc1OCc1ccc(C2CC2)cc1` [Compound 16], for which the IC50 in assay [1] was 22 nM; in assay [2] (setting [3]), 0.005 µM.

Take `COc1cc(Oc2ccc3c(c2)C2=NCCN2C=N3)cnc1OCc1ccc(C2CC2)cc1` [Compound 17]: the IC50 worked out at 15 nM in assay [1] and 0.018 µM in assay [2] (setting [3]).

With `COc1cc(Oc2ccc3ncccc3c2)cnc1OCc1ccc(C2CC2)cc1` [Compound 18], the results for the IC50 in assay [1] and in assay [2] (setting [3]) were 33 nM and 0.005 µM, respectively.

On to `COc1cc(Oc2ccc3ncc(C)c(=O)n3c2)cnc1OCc1ccc(Cl)cc1` [Compound 19, 7-((6-((4-chlorobenzyl)oxy)-S-methoxypyridin-3-yl)oxy)-3-methyl-4H-pyrido[1,2-a]pyrimidin-4-one], for which, in assay [2] (setting [3]), the IC50 was found to be 0.031 µM.

Take `COc1ccc(COc2ncc(Oc3ccc4ncc(C)c(=O)n4c3)cc2F)cc1` [Compound 20]: the results for the IC50 in assay [1] and in assay [2] (setting [3]) were 24 nM and 0.06 µM, respectively.

As to `COc1cc(Oc2ccc3ncc(C)c(=O)n3c2)cnc1OCc1ccc(C2CC2)cc1` [Compound 21], the IC50 in assay [1] was found to be 13 nM; in assay [2] (setting [3]) it was 0.008 µM.

As to `COc1cc(Oc2ccc3ncc(N)c(=O)n3c2)cnc1OCc1ccc(C2CC2)cc1` [Compound 22], the IC50 in assay [1] worked out at 12 nM; in assay [2] (setting [3]), 0.009 µM.

On to `COc1cc(Oc2ccc3ncc(C)c(=O)n3c2)cnc1OCc1ccc(C(C)(C)C#N)cc1` [Compound 28], for which the IC50 in assay [1] was found to be 70 nM.

For `COc1ccc(COc2ncc(Oc3ccc4ncc(C)c(=O)n4c3)cc2C#N)cc1` [Compound 30], the IC50 in assay [1] was 460 nM.

With `COc1ccc(COc2ncc(Oc3ccc4ncc(N)c(=O)n4c3)cc2C)cc1` [Compound 33], the IC50 in assay [1] is 150 nM.

`COc1ccc(COc2ncc(Oc3ccc4ncc(C)c(=O)n4c3)cc2C)cc1` [Compound 34]: in assay [1], the IC50 was determined as 499 nM.

As to `COc1ccc([C@H]2COc3cc(Oc4ccc5nccc(=O)n5c4)cnc3O2)nc1` [Compound 77], the IC50 in assay [1] was 80 nM.
